Test results published in US9273115B2, “Method for controlling the biological activity of a protein in a vertebrate cell” (CENTRE NATIONAL DE LA RECHERCHE SCIENTIFIQUE (CNRS), priority 2009, dated 2016).
Residue numbers refer to the chain shown, from its start.

What was measured:
Cre-ERM^Db [1] = biological target: T1, Cre-ERM^Db (Homo sapiens, UniProt P03372, A350M/G400V/G521S/L346I/M388Q/Y526D); experiment: X-Gal staining of skin sections of K14-Cre-ERM^Db/RosaR26R mice (Cre-mediated recombination in keratinocytes); conditions: for Cre-mediated recombination in keratinocytes expressing Cre-ERM^Db: ear treatment 1 mg/day for 5 days, ear sections at day 12; for Cre-mediated recombination in Cre-ERM^Db-expressing keratinocytes of ear skin (distal) / Cre-mediated recombination in Cre-ERM^Db-expressing keratinocytes of tail treated skin: daily tail topical treatment 1 or 0.2 mg for 5 days
T1 sequence (P03372 311-547 L346I/A350M/M388Q/G400V/G521S/Y526D limits assumed): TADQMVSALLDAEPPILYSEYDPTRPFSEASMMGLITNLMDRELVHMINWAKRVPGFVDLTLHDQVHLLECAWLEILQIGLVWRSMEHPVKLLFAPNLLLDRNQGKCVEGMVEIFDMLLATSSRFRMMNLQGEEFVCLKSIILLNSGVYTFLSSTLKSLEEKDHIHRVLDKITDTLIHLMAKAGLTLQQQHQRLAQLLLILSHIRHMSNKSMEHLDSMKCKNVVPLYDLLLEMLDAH
Method: For topical application, DHB, DHBD, HMB or MB dissolved in ethanol at 100 mg/ml was diluted two times in acetone, and 20 μl (1 mg) was daily applied on one cm^2 ear or tail skin for 5 days. For intraperitoneal and gavage administration, compounds dissolved in ethanol were diluted at 10 mg/ml in sunflower oil, and 100 μl were i.p. injected or orally administered to mice.
β-Galactosidase histochemistry was performed on 10 μm-thick frozen section, stained with X-Gal (5-bromo-4-chloro-3-indolyl β-D-galactoside), as described (Brocard et al., 1997).

Cre-ERM^Db [2] = biological target: T1, Cre-ERM^Db
Method: (§1) F9^+/(LNL) cells (Clifford et al., 1996; Metzger et al., 1995) were coelectroporated with 5 μg pCre-ER expression vectors and 1 μg pPGK-hyg, that had been digested with AseI and PvuII, respectively. Hygromycin-resistant clones were obtained as described (Metzger et al., 1995). To analyse Cre-mediated DNA excision, such clones were plated in 24-well plates at a density of 6×10^3 cells, and grown in the presence of 100 nM all-trans retinoic acid (RA). […] PCR amplification of a segment of the RXRα WT allele (+) and recombined RXRα (Δ) allele from their genomic DNA was carried out using the primers 5′-[…]-3′ (SEQ ID No. 1) and 5′-[…]-3′ (SEQ ID No. 2) (+, ˜300 bp; Δ, ˜350 bp), as described (Feil et al., 1997).

Cre-ERM^Dc [3] = biological target: T2, Cre-ERM^Dc (Homo sapiens, UniProt P03372, A350M/G442Y/G521S/L346I/L466S/M388Q/Y459N/Y526D); experiment: PCR detection of Cre-mediated floxed DNA excision in Cre-ERM^Dc/RXRα^+/(LNL) F9 cells; type: cell-based; design: Cre recombinase (bacteriophage P1); expressed in transfected cells; conditions: F9 clone; one of 9 active clones
T2 sequence (P03372 311-547 L346I/A350M/M388Q/G442Y/Y459N/L466S/G521S/Y526D limits assumed): T1 sequence (P03372 311-547 L346I/A350M/M388Q/G400V/G521S/Y526D limits assumed) with V90G, G132Y, Y149N, L156S
Method: as §1

Cre-ERM^Db [4] = biological target: T1, Cre-ERM^Db; experiment: Immunocytochemistry of pCre-ERM^Db-transfected Cos-1 cells (nuclear translocation); type: cell-based, monkey; design: Cre recombinase (bacteriophage P1); expressed in transfected cells; host or cells: Cos-1 cells (transient, pCre-ERM^Db) for A2; conditions: 3 μM DHB for 24 hrs
Method: (§2) Cos-1 cells grown on Lab-TekII chamber slides (Nalge Nunc International) were transfected with 0.25 μg pCre-ERM expression vectors with Fugene, according to the manufacturer's instruction and treated with vehicle (ethanol) or 3 μM DHB for 24 hrs.

[5] = Plasma levels after i.p. administration; type: in vivo, mice
Method: For intraperitoneal and gavage administration, compounds dissolved in ethanol were diluted at 10 mg/ml in sunflower oil, and 100 μl were i.p. injected or orally administered to mice.

Cre-ERM^Da [6] = biological target: T3, Cre-ERM^Da (Homo sapiens, UniProt P03372, A350M/G521S/L346I/M388Q/Y526D); experiment: PCR detection of Cre-mediated floxed DNA excision in Cre-ERM^Da/RXRα^+/(LNL) F9 cells; type: cell-based, mouse; design: a fusion protein between Cre and the L346I, A350M, M388Q, G521S, Y526D mutant ERα LBD; Cre recombinase (bacteriophage P1); expressed in transfected cells; conditions: 3 μM DHB, 3 days
T3 sequence (P03372 311-547 L346I/A350M/M388Q/G521S/Y526D limits assumed): T1 sequence (P03372 311-547 L346I/A350M/M388Q/G400V/G521S/Y526D limits assumed) with V90G
Method: as §1

[7] = Liver histology of treated mice; type: in vivo; conditions: DHB-treated mice
Cre-ERM^Da [8] = biological target: T3, Cre-ERM^Da; experiment: Immunocytochemistry of pCre-ERM^Da-transfected Cos-1 cells (nuclear translocation); type: cell-based, African green monkey; design: a fusion protein between Cre and the L346I, A350M, M388Q, G521S, Y526D mutant ERα LBD; Cre recombinase (bacteriophage P1); expressed in transfected cells; host or cells: Cos-1 cells (transient, pCre-ERM^Da) for A1; conditions: 3 μM DHB for 24 hrs
Method: as §2

Cre-ERM^Dc [9] = biological target: T2, Cre-ERM^Dc; experiment: Immunocytochemistry of Cre-ERM^Dc (translocation from cytoplasm to nucleus); type: cell-based; design: Cre recombinase (bacteriophage P1); expressed in transfected cells; host or cells: Cos-1 cells (transient, pCre-ERM^Dc) for A3; conditions: data not shown
Method: as §2

[10] = Blood hematology and plasma biochemical profile at D19; type: in vivo, mice; design: Bilirubin / Uric acid / Iron: unit not given here; conditions: for ALAT / ALP / ASAT / Albumin / Bilirubin / Cholesterol / Glucose / HCT, hematocrit / HGB, hemoglobin / Iron / K / MCH, mean corpuscular hemoglobin / MCHC, mean corpuscular hemoglobin concentration / MCV, mean corpuscular volume / Magnesium / Na / Phosphorus / Total protein / Triglycerides / Uric acid: 1 mg daily ip D1 to D5, means +/− SD, n = 3

COc1ccc(C(=O)C(=O)c2ccc(O)cc2)cc1 [HMB, 4-hydroxy-4′-methoxybenzyl]
Cre-mediated recombination in keratinocytes expressing Cre-ERM^Db (Cre-ERM^Db [1]): Induction of Cre-ERM^Db recombinase activity

4-hydroxytamoxifen [OHT]
Cre-ERM^Db recombinase activity (Cre-ERM^Db [2]): neither E2 nor OHT induced any recombinase activity

CC(C)(C)C(=O)Oc1ccc(C(=O)C(=O)c2ccc(OC(=O)C(C)(C)C)cc2)cc1 [DHBD, 4,4′-dihydroxylbenzyl dipivalate]
Cre-mediated recombination in Cre-ERM^Db-expressing keratinocytes of ear skin (distal) (Cre-ERM^Db [1]): induced efficient Cre-mediated recombination | Cre-mediated recombination in Cre-ERM^Db-expressing keratinocytes of tail treated skin (Cre-ERM^Db [1]): induced efficient Cre-mediated recombination

O=C(C(=O)c1ccc(O)cc1)c1ccc(O)cc1 [DHB, 4,4′-dihydroxybenzil]
Cre-mediated floxed DNA excision (Cre-ERM^Db recombinase activity) (Cre-ERM^Db [2]; F9 clone, ligand 3 μM): efficiently induced Cre-mediated floxed DNA excision | Cre-ERM^Dc Cre-mediated recombinase activity (Cre-ERM^Dc [3]): strictly DHB-dependent | β-galactosidase expression in epidermal keratinocytes (Cre-ERM^Db [1]; 1 mg topically to one ear D1 to D5, treated ear sampled at D12): most, if not all epidermal keratinocytes from the treated ear expressed β-galactosidase | Cre-mediated recombination in Cre-ERM^Db-expressing keratinocytes of ear skin (distal) (Cre-ERM^Db [1]): induced efficient Cre-mediated recombination | Cre-mediated recombination in Cre-ERM^Db-expressing keratinocytes of tail treated skin (Cre-ERM^Db [1]): induced efficient Cre-mediated recombination | Cre-mediated recombination in keratinocytes expressing Cre-ERM^Db (Cre-ERM^Db [1]): efficiently induced | β-galactosidase expression in epidermal keratinocytes (Cre-ERM^Db [1]; gavage 2 mg/day for 5 days): induced | β-galactosidase expression in epidermal keratinocytes (Cre-ERM^Db [1]; intraperitoneal injection 1 mg/day for 5 days): induced | Cre-ERM^Db nuclear translocation (Cre-ERM^Db [4]): induced its nuclear translocation | in vivo clearance ([5]; 1 mg i.p.): high | plasma levels ([5]; 1 mg i.p., 22 hours after the two-hour sample): undetectable | concentration at 2 h ([5]; mouse, plasma, ip, two hours after 1 mg i.p.): 550 ng/mL | Cre-ERM^Da recombinase activity (Cre-ERM^Da [6]): induced Cre-ERM^Da recombinase activity | histological defects in liver [7]: no histological defects | Cre-ERM^Da protein nuclear translocation (Cre-ERM^Da [8]): induced Cre-ERM^Da protein nuclear translocation | translocation of Cre-ERM^Dc from the cytoplasm to the nucleus (Cre-ERM^Dc [9]): induced translocation | blood hematology and plasma biochemical profiles versus vehicle ([10]; 1 mg daily ip D1 to D5): did not reveal major difference | ALAT ([10]; female mice): 27.7 +/− 2.9 U/l | ALP ([10]; female mice): 137.0 +/− 14.1 U/l | ASAT ([10]; female mice): 143.3 +/− 91.3 U/l | Albumin ([10]; female mice): 28.7 ± 0.6 g/L | Bilirubin ([10]; female mice): 1.3 +/− 0.4 | Cholesterol ([10]; female mice): 1.8 ± 0.1 mmol/L | Glucose ([10]; female mice): 18.7 ± 3.5 mmol/L | HCT, hematocrit ([10]; female mice): 38.9 +/− 2.3% | HGB, hemoglobin ([10]; female mice): 13.3 ± 0.8 g/dL | Iron ([10]; female mice): 25.6 +/− 3.9 | K ([10]; female mice): 5.8 ± 0.5 mmol/L | MCH, mean corpuscular hemoglobin ([10]; female mice): 16.1 ± 0.2 pg | MCHC, mean corpuscular hemoglobin concentration ([10]; female mice): 34.2 ± 0.2 g/dL | MCV, mean corpuscular volume ([10]; female mice): 47.2 ± 0.9 fL | Magnesium ([10]; female mice): 1.5 ± 0.1 mmol/L | Na ([10]; female mice): 152 ± 1.0 mmol/L | Phosphorus ([10]; female mice): 3.2 ± 0.1 mmol/L | Total protein ([10]; female mice): 48 ± 2.6 g/L | Triglycerides ([10]; female mice): 0.6 ± 0.1 mmol/L | Uric acid ([10]; female mice): 193.0 +/− 58.4 | ALAT ([10]; male mice): 34.7 +/− 17.5 U/l | ALP ([10]; male mice): 114.3 +/− 8.1 U/l | ASAT ([10]; male mice): 194 +/− 45.5 U/l | Albumin ([10]; male mice): 27.3 ± 3.5 g/L | Bilirubin ([10]; male mice): 2.0 +/− 0.3 | Cholesterol ([10]; male mice): 2.2 ± 0.2 mmol/L | Glucose ([10]; male mice): 21.4 ± 7.2 mmol/L | HCT, hematocrit ([10]; male mice): 40.0 +/− 3.7% | HGB, hemoglobin ([10]; male mice): 14.0 ± 1.3 g/dL | Iron ([10]; male mice): 24.9 +/− 1.4 | K ([10]; male mice): 5.9 mmol/L | MCH, mean corpuscular hemoglobin ([10]; male mice): 16.0 ± 0.2 pg | MCHC, mean corpuscular hemoglobin concentration ([10]; male mice): 34.9 ± 0.1 g/dL | MCV, mean corpuscular volume ([10]; male mice): 45.8 ± 0.5 fL | Magnesium ([10]; male mice): 1.2 ± 0.2 mmol/L | Na ([10]; male mice): 149.7 ± 6.1 mmol/L | Phosphorus ([10]; male mice): 3.6 ± 0.6 mmol/L | Total protein ([10]; male mice): 48.3 ± 7.1 g/L | Triglycerides ([10]; male mice): 0.8 ± 0.2 mmol/L | Uric acid ([10]; male mice): 235.7 +/− 132.5

4,4′-methoxybenzyl [MB]
Cre-mediated recombination in keratinocytes expressing Cre-ERM^Db (Cre-ERM^Db [1]): efficiently induced
